Measurements taken from ChEMBL document CHEMBL1201862, “PubChem BioAssay data set” (2004).
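In this assay, cells in 96-well plates receive the compound at five concentrations for 48 hours. Endpoints are linearly interpolated between the surrounding concentrations. At the GI50, growth is halved.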 The source made the active and inactive calls. No stated cut-off is given here; in the data, active = GI50 up to about 1.1 µM and inactive = higher.

Legend:
Assay in all cases: NCI-60 cell line screen, 48 h
K562 = test system: K562
SK-MEL-5 = test system: SK-MEL-5
NCI-H23 = test system: NCI-H23
SW-620 = test system: SW-620
U-251 = test system: U-251
MDA-MB-231 = test system: MDA-MB-231
OVCAR-8 = test system: OVCAR-8
COLO 205 = test system: COLO 205
HCT-116 = test system: HCT-116
NCI-H522 = test system: NCI-H522
786-0 = test system: 786-0
A498 = test system: A498
Malme-3M = test system: Malme-3M
BT-549 = test system: BT-549
IGROV-1 = test system: IGROV-1
KM12 = test system: KM12
SNB-75 = test system: SNB-75
Hs-578T = test system: Hs-578T
NCI-H226 = test system: NCI-H226
UACC-257 = test system: UACC-257

Compound | GI50 (K562) | GI50 (SK-MEL-5) | GI50 (NCI-H23) | GI50 (SW-620) | GI50 (U-251) | GI50 (MDA-MB-231) | GI50 (OVCAR-8) | GI50 (COLO 205) | GI50 (HCT-116) | GI50 (NCI-H522) | GI50 (786-0) | GI50 (A498) | GI50 (Malme-3M) | GI50 (BT-549) | GI50 (IGROV-1) | GI50 (KM12) | GI50 (SNB-75) | GI50 (Hs-578T) | GI50 (NCI-H226) | GI50 (UACC-257)
CCOC(=O)CCc1ccc(NC(=O)/C=C/c2ccc([N+](=O)[O-])o2)cc1 | 0.27 µM (active) | 1.49 µM (inactive) | 0.863 µM (active) | 0.547 µM (active) | 2.12 µM (inactive) | 1.8 µM (inactive) | 0.681 µM (active) | 1.52 µM (inactive) | 0.685 µM (active) | 0.287 µM (active) | 0.229 µM (active) | 3.14 µM (inactive) | 1.49 µM (inactive) | 2.66 µM (inactive) | 3.5 µM (inactive) | 1.56 µM (inactive) | 2.16 µM (inactive) | 3.16 µM (inactive) | 4.34 µM (inactive) | 0.798 µM (active)
COC(C)(C)C(O)C(O)C[C@H](C)C1CC=C2C1(C)CCC1[C@@]3(C)CCC(OC(C)=O)C(C)(C)C3CC(OC3OC(COC(C)=O)C(O)C(O)C3O)[C@@]21C (stereo not given in full) | 3.33 µM (inactive) | 2.21 µM (inactive) | 4.85 µM (inactive) | 5.38 µM (inactive) | 4.37 µM (inactive) | 2.5 µM (inactive) | 3.72 µM (inactive) | 1.99 µM (inactive) | 3 µM (inactive) | 2.78 µM (inactive) | 4.8 µM (inactive) | 3.31 µM (inactive) | 5.55 µM (inactive) | > 10 µM (inactive) | 2.78 µM (inactive) | 2.92 µM (inactive) | 3.7 µM (inactive) | 4.37 µM (inactive) | 5.21 µM (inactive) | 3.02 µM (inactive)
CNC(=O)OCc1nc(N=[N+]=[N-])n(C)c1COC(=O)NC | 46.5 µM (inactive) | > 10 µM (inactive) | 54.2 µM (inactive) | 66.1 µM (inactive) | 31.3 µM (inactive) | 95.5 µM (inactive) | 58.9 µM (inactive) | 32.8 µM (inactive) | 46.2 µM (inactive) | 19.5 µM (inactive) | > 10 µM (inactive) | 32.3 µM (inactive) | 55.7 µM (inactive) | > 10 µM (inactive) | > 100 µM (inactive) | 69.8 µM (inactive) | 49 µM (inactive) | > 100 µM (inactive) | > 100 µM (inactive) | > 100 µM (inactive)
C=C1[C@@H](O)C[C@@]23CC[C@@H]4[C@@]5(C)CC[C@@H](OC(C)=O)C(C)(C)[C@@H]5C[C@@H](OC5OC(COC(C)=O)C(O)C(O)C5O)[C@@]4(C)C2=CC[C@H]3[C@H]1C (stereo not given in full) | 2.99 µM (inactive) | 4 µM (inactive) | 10.7 µM (inactive) | 6.44 µM (inactive) | 3.03 µM (inactive) | 5.47 µM (inactive) | 7.13 µM (inactive) | 2 µM (inactive) | 3.43 µM (inactive) | 5.35 µM (inactive) | 6.14 µM (inactive) | 9.73 µM (inactive) | 9.48 µM (inactive) | 8.17 µM (inactive) | 3.8 µM (inactive) | 2.1 µM (inactive) | 3.96 µM (inactive) | 5.66 µM (inactive) | 4.43 µM (inactive) | 11.6 µM (inactive)
O=C1CC(CC(OCc2ccccc2)C(COCc2ccccc2)OCc2ccccc2)CC(=O)N1 (stereo not given) | 33.7 µM (inactive) | 15.4 µM (inactive) | 43.1 µM (inactive) | 50.6 µM (inactive) | 32.5 µM (inactive) | 50.2 µM (inactive) | 31.9 µM (inactive) | 19.2 µM (inactive) | 23.6 µM (inactive) | 23.7 µM (inactive) | 32.4 µM (inactive) | 30.3 µM (inactive) | 19.9 µM (inactive) | 13 µM (inactive) | 70.5 µM (inactive) | 37.9 µM (inactive) | 52.7 µM (inactive) | 44.2 µM (inactive) | 44.1 µM (inactive) | 27.4 µM (inactive)
O=C1c2cccnc2-c2nccc3c2c1nc1cc(Br)ccc13 | 0.033 µM (active) | 0.132 µM (active) | 0.0955 µM (active) | < 0.0264 µM (active) | 0.0843 µM (active) | 0.103 µM (active) | 0.0659 µM (active) | 0.798 µM (active) | 0.025 µM (active) | 0.115 µM (active) | 0.0713 µM (active) | 0.0196 µM (active) | 0.108 µM (active) | 0.25 µM (active) | 0.14 µM (active) | 0.147 µM (active) | 0.243 µM (active) | 0.204 µM (active) | 0.216 µM (active) | 0.226 µM (active)
Cc1ccc(/C(C#N)=C/c2cccc([N+](=O)[O-])c2)cc1 | > 100 µM (inactive) | > 100 µM (inactive) | > 100 µM (inactive) | > 100 µM (inactive) | 46.7 µM (inactive) | 19.2 µM (inactive) | 59.2 µM (inactive) | > 100 µM (inactive) | 76.2 µM (inactive) | > 100 µM (inactive) | 31.8 µM (inactive) | 59.4 µM (inactive) | > 100 µM (inactive) | > 100 µM (inactive) | 80.5 µM (inactive) | > 100 µM (inactive) | 19.5 µM (inactive) | 27.4 µM (inactive) | > 100 µM (inactive) | > 100 µM (inactive)
